# According to ChEMBL document CHEMBL3885861, “Open TG-GATES”:
# Species on record: Rattus norvegicus
# Experiment: Open TG-GATES - Regimen: Daily Repeat
# Type: toxicity, organism-based, Sprague-Dawley
# Set-up: regimen Daily Repeat, gender Male, age 6 weeks
# Settings: in vivo, po, 250 mg/kg, route gavage, dose level High; for APTT / Bas / Eos / Fbg / Hb / Ht / Lym / MCH / MCHC / MCV / Mono / Neu / PT / Plat / RBC / Ret / WBC: tissue Blood; for KIDNEY_L / KIDNEY_R / KIDNEY_TOTAL: tissue Kidney; for LIVER: tissue Liver; for A/G / ALP / ALT / AST / BUN / CRE / Ca / Cl / DBIL / GLC / IP / K / LDH / Na / PL / RALB / TBIL / TC / TG / TP / gamma-GTP: tissue Plasma
structure (smiles),measurement,setting,value
CCSCC[C@H](N)C(=O)O [ETHIONINE],TERMINAL_BW,"72 h, time 3 day",209.1 g
same,APTT,"72 h, time 3 day",27.3 s
same,Bas,"72 h, time 3 day",0%
same,Eos,"72 h, time 3 day",1%
same,Fbg,"72 h, time 3 day",204.2 mg/dL
same,Hb,"72 h, time 3 day",15.1 g/dL
same,Ht,"72 h, time 3 day",43.9%
same,Lym,"72 h, time 3 day",87%
same,MCH,"72 h, time 3 day",21.5 pg
same,MCHC,"72 h, time 3 day",34.3%
same,MCV,"72 h, time 3 day",62.9 fL
same,Mono,"72 h, time 3 day",2.4%
same,Neu,"72 h, time 3 day",8.8%
same,PT,"72 h, time 3 day",16.2 s
same,Plat,"72 h, time 3 day",114.9 x10_4/uL
same,RBC,"72 h, time 3 day",698.8 x10_4/ul
same,Ret,"72 h, time 3 day",4%
same,WBC,"72 h, time 3 day",108.9 x10_2/uL
same,KIDNEY_L,"72 h, time 3 day",0.9 g
same,KIDNEY_R,"72 h, time 3 day",0.9 g
same,KIDNEY_TOTAL,"72 h, time 3 day",1.9 g
same,LIVER,"72 h, time 3 day",8.7 g
same,A/G,"72 h, time 3 day",1.9
same,ALP,"72 h, time 3 day",1059.2 IU/L
same,ALT,"72 h, time 3 day",42 IU/L
same,AST,"72 h, time 3 day",73.2 IU/L
same,BUN,"72 h, time 3 day",15.8 mg/dL
same,CRE,"72 h, time 3 day",0.4 mg/dL
same,Ca,"72 h, time 3 day",10.4 mg/dL
same,Cl,"72 h, time 3 day",102 meq/L
same,DBIL,"72 h, time 3 day",0.09 mg/dL
same,GLC,"72 h, time 3 day",183.8 mg/dL
same,IP,"72 h, time 3 day",8.3 mg/dL
same,K,"72 h, time 3 day",3.8 meq/L
same,LDH,"72 h, time 3 day",236.4 IU/L
same,Na,"72 h, time 3 day",140 meq/L
same,PL,"72 h, time 3 day",94 mg/dL
same,RALB,"72 h, time 3 day",3.5 g/dL
same,TBIL,"72 h, time 3 day",0.2 mg/dL
same,TC,"72 h, time 3 day",36.6 mg/dL
same,TG,"72 h, time 3 day",40.4 mg/dL
same,TP,"72 h, time 3 day",5.5 g/dL
same,gamma-GTP,"72 h, time 3 day",0.8 IU/L
same,TERMINAL_BW,"[…], time 7 day",226 g
same,TERMINAL_BW,"[…], time 14 day",268.3 g
same,TERMINAL_BW,"[…], time 28 day",314.2 g
same,APTT,"[…], time 7 day",28 s
same,Bas,"[…], time 7 day",0%
same,Eos,"[…], time 7 day",0.4%
same,Fbg,"[…], time 7 day",210.4 mg/dL
same,Hb,"[…], time 7 day",15.1 g/dL
same,Ht,"[…], time 7 day",44.3%
same,Lym,"[…], time 7 day",83.4%
same,MCH,"[…], time 7 day",20.9 pg
same,MCHC,"[…], time 7 day",34%
same,MCV,"[…], time 7 day",61.6 fL
same,Mono,"[…], time 7 day",2.2%
same,Neu,"[…], time 7 day",13.6%
same,PT,"[…], time 7 day",15.5 s
same,Plat,"[…], time 7 day",87.8 x10_4/uL
same,RBC,"[…], time 7 day",720.4 x10_4/ul
same,Ret,"[…], time 7 day",1%
same,WBC,"[…], time 7 day",122.2 x10_2/uL
same,APTT,"[…], time 14 day",26 s
same,Bas,"[…], time 14 day",0%
same,Eos,"[…], time 14 day",0.6%
same,Fbg,"[…], time 14 day",205.4 mg/dL
same,Hb,"[…], time 14 day",14.3 g/dL
same,Ht,"[…], time 14 day",42.2%
same,Lym,"[…], time 14 day",75.8%
same,MCH,"[…], time 14 day",19.9 pg
same,MCHC,"[…], time 14 day",34%
same,MCV,"[…], time 14 day",58.5 fL
same,Mono,"[…], time 14 day",2.6%
same,Neu,"[…], time 14 day",20.2%
same,PT,"[…], time 14 day",15.4 s
same,Plat,"[…], time 14 day",100.5 x10_4/uL
same,RBC,"[…], time 14 day",722.2 x10_4/ul
same,Ret,"[…], time 14 day",3.8%
same,WBC,"[…], time 14 day",133.6 x10_2/uL
same,APTT,"[…], time 28 day",27.8 s
same,Bas,"[…], time 28 day",0%
same,Eos,"[…], time 28 day",0.6%
same,Fbg,"[…], time 28 day",200.6 mg/dL
same,Hb,"[…], time 28 day",15.9 g/dL
same,Ht,"[…], time 28 day",45.4%
same,Lym,"[…], time 28 day",77%
same,MCH,"[…], time 28 day",19.4 pg
same,MCHC,"[…], time 28 day",35%
same,MCV,"[…], time 28 day",55.4 fL
same,Mono,"[…], time 28 day",2.2%
same,Neu,"[…], time 28 day",19.6%
same,PT,"[…], time 28 day",16.1 s
same,Plat,"[…], time 28 day",95.1 x10_4/uL
same,RBC,"[…], time 28 day",820.2 x10_4/ul
same,Ret,"[…], time 28 day",1.6%
same,WBC,"[…], time 28 day",91.7 x10_2/uL
same,KIDNEY_L,"[…], time 7 day",1 g
same,KIDNEY_R,"[…], time 7 day",1 g
same,KIDNEY_TOTAL,"[…], time 7 day",2 g
same,KIDNEY_L,"[…], time 14 day",1.1 g
same,KIDNEY_R,"[…], time 14 day",1.1 g
same,KIDNEY_TOTAL,"[…], time 14 day",2.3 g
same,KIDNEY_L,"[…], time 28 day",1.1 g
same,KIDNEY_R,"[…], time 28 day",1.1 g
same,KIDNEY_TOTAL,"[…], time 28 day",2.3 g
same,LIVER,"[…], time 7 day",9.3 g
same,LIVER,"[…], time 14 day",10.5 g
same,LIVER,"[…], time 28 day",11.6 g
same,A/G,"[…], time 7 day",2
same,ALP,"[…], time 7 day",1237 IU/L
same,ALT,"[…], time 7 day",44 IU/L
same,AST,"[…], time 7 day",62.8 IU/L
same,BUN,"[…], time 7 day",16.6 mg/dL
same,CRE,"[…], time 7 day",0.4 mg/dL
same,Ca,"[…], time 7 day",10.4 mg/dL
same,Cl,"[…], time 7 day",105.2 meq/L
same,DBIL,"[…], time 7 day",0.1 mg/dL
same,GLC,"[…], time 7 day",178.4 mg/dL
same,IP,"[…], time 7 day",5.9 mg/dL
same,K,"[…], time 7 day",3.7 meq/L
same,LDH,"[…], time 7 day",214.2 IU/L
same,Na,"[…], time 7 day",141.8 meq/L
same,PL,"[…], time 7 day",118.2 mg/dL
same,RALB,"[…], time 7 day",3.5 g/dL
same,TBIL,"[…], time 7 day",0.2 mg/dL
same,TC,"[…], time 7 day",45.8 mg/dL
same,TG,"[…], time 7 day",76.4 mg/dL
same,TP,"[…], time 7 day",5.3 g/dL
same,gamma-GTP,"[…], time 7 day",1 IU/L
same,A/G,"[…], time 14 day",1.9
same,ALP,"[…], time 14 day",959.2 IU/L
same,ALT,"[…], time 14 day",33.2 IU/L
same,AST,"[…], time 14 day",58 IU/L
same,BUN,"[…], time 14 day",18.8 mg/dL
same,CRE,"[…], time 14 day",0.4 mg/dL
same,Ca,"[…], time 14 day",10.2 mg/dL
same,Cl,"[…], time 14 day",103 meq/L
same,DBIL,"[…], time 14 day",0.1 mg/dL
same,GLC,"[…], time 14 day",189.8 mg/dL
same,IP,"[…], time 14 day",6.9 mg/dL
same,K,"[…], time 14 day",3.6 meq/L
same,LDH,"[…], time 14 day",196 IU/L
same,Na,"[…], time 14 day",142 meq/L
same,PL,"[…], time 14 day",135.8 mg/dL
same,RALB,"[…], time 14 day",3.5 g/dL
same,TBIL,"[…], time 14 day",0.2 mg/dL
same,TC,"[…], time 14 day",57.4 mg/dL
same,TG,"[…], time 14 day",80.2 mg/dL
same,TP,"[…], time 14 day",5.4 g/dL
same,gamma-GTP,"[…], time 14 day",0.8 IU/L
same,A/G,"[…], time 28 day",1.9
same,ALP,"[…], time 28 day",934.8 IU/L
same,ALT,"[…], time 28 day",34 IU/L
same,AST,"[…], time 28 day",62.4 IU/L
same,BUN,"[…], time 28 day",19.2 mg/dL
same,CRE,"[…], time 28 day",0.5 mg/dL
same,Ca,"[…], time 28 day",10 mg/dL
same,Cl,"[…], time 28 day",105.2 meq/L
same,DBIL,"[…], time 28 day",0.1 mg/dL
same,GLC,"[…], time 28 day",177 mg/dL
same,IP,"[…], time 28 day",5.6 mg/dL
same,K,"[…], time 28 day",3.5 meq/L
same,LDH,"[…], time 28 day",271.6 IU/L
same,Na,"[…], time 28 day",143 meq/L
same,PL,"[…], time 28 day",126.4 mg/dL
same,RALB,"[…], time 28 day",3.8 g/dL
same,TBIL,"[…], time 28 day",0.2 mg/dL
same,TC,"[…], time 28 day",49.2 mg/dL
same,TG,"[…], time 28 day",101.4 mg/dL
same,TP,"[…], time 28 day",5.8 g/dL
same,gamma-GTP,"[…], time 28 day",1 IU/L
